Data from patent US8067430B1, “Anti-HIV activity of the opioid antagonist naloxone” (University of South Florida, priority 2003, dated 2011).
Where a name gives a salt, the structure may show the parent alone.

Columns and labels:
[1] = test system: HIV-1 gp120 (external envelope glycoprotein); assay: Immunoblot (Western blot) of gp120 in lysates of HIV infected Supt 1 cells; assay type: cell-based, HIV-1MN
Method: The expression of the essential HIV coat protein gp120 is measured by this technique. Western Blot analysis of gp120 detected with a murine anti-gp120 monoclonal antibody from HIV-1 infected cells treated with naloxone or AZT. HIV-MN infected Supt 1 cells treated will different molar concentrations of naloxone or AZT. Cells were lysed at 3 days after infection of the cells with cell free HIV-1MN and 100 μg of the lysate was loaded onto SDS-PAGE, transferred onto a Hybond ECL membrane and detected with an anti-gp120 monoclonal antibody. VC=viral control (infected cells with no drug treatment).
200TCID-50 per milliliter (tissue culture infectious dose) of HIV-MN cell free virus was used to infect 500,000/milliliter of a human T cell line (called SupTI) in the presence (at a range of concentrations) or absence (control) of naloxone-HC1/or AZT. The TCID-50 is an amount of virus which will infect 50% of non-infected target cells. The virus+cells+drugs (naloxone or AZT) were incubated at 37 degrees Celsius in an atmosphere of 5% carbon dioxide for three days. Cells were lysed by using a detergent 1% Triton-X100. This preparation was frozen in liquid nitrogen and thawed at 37 degrees Celsius for three cycles. The preparation was vortexed vigorously for 20 seconds at the end of each cycle. Samples were then stored at −80 degrees Celsius until analysis. […]

[2] = test system: reverse transcriptase activity in HIV-MN infected Supt 1 cells; assay: RT activity assay on lysates of HIV-MN infected, drug-treated Supt 1 cells; assay type: cell-based
Method: 200TCID-50 per milliliter (tissue culture infectious dose) of HIV-MN cell free virus was used to infect 500,000/milliliter of a human T cell line (called SupTI) in the presence (at a range of concentrations) or absence (control) of naloxone-HC1/or AZT. The TCID-50 is an amount of virus which will infect 50% of non-infected target cells. The virus+cells+drugs (naloxone or AZT) were incubated at 37 degrees Celsius in an atmosphere of 5% carbon dioxide for three days. Cells were lysed by using a detergent 1% Triton-X100. This preparation was frozen in liquid nitrogen and thawed at 37 degrees Celsius for three cycles. The preparation was vortexed vigorously for 20 seconds at the end of each cycle. Samples were then stored at −80 degrees Celsius until analysis. Total RNA from the samples were prepared by using the Tri-reagent assay and aliquoted and stored at −80 degrees Celsius until RT-PCR (reverse transcriptase-polymerase chain reaction) analysis.
A 96 well microplate was coated with 200 μl/well of a 40 mg/ml solution of polyA and incubated at room temperature overnight with rocking. […] The color reaction in the wells was measured spectrophotometrically. Color development was proportional to the amount of RT in the wells and quantitation was made based upon a standard curve of using recombinant RT. […]

[3] = test system: HIV gp41 transmembrane envelope glycoprotein RNA; assay: RT-PCR of gp41 RNA from HIV infected target cells; assay type: cell-based, HIV-MN; conditions: different molar concentrations, hydrochloride
Text: Total RNA from the preparations described above was used as a template for the generation of complementary DNA (cDNA). This was accomplished through the use of commercial RT-PCR kits (Gibco/BRL/Life Technologies, Inc., Rockville, Md.). […]

GADPH = assay: RT-PCR control: expression of constitutive enzyme GADPH; assay type: cell-based, human; conditions: housekeeping gene control in RT-PCR
Method: Total RNA from the preparations described above was used as a template for the generation of complementary DNA (cDNA). This was accomplished through the use of commercial RT-PCR kits (Gibco/BRL/Life Technologies, Inc., Rockville, Md.). The gene for the HIV gp41 transmembrane envelope glycoprotein was amplified from the RT products through the use of the following PCR cycling conditions: 94 degrees Celsius for 2 minutes followed by 52 degrees Celsius for 1 minutes then followed by 32 cycles at 94 degrees Celsius for 1 minutes, 52 degrees Celsius for 1 minutes, 72 degrees Celsius for […], then PCR extension was accomplished at 72 degrees Celsius for 10 minutes. The cycles were then ended by incubation at 4 degrees Celsius for 16 hours. […] (microliters) of PCR products were then loaded onto a 1.5% agarose gel containing 5 μg/ml of ethidium bromide. Bands in the gel with a size of 1.2 kb was considered to be gp41 based upon the primers used in the assay: Primer Sequences are as follows: Sense: 5 prime-[…]-3 prime (SEQ ID NO:1); Antisense 5 prime-[…]-3 prime (SEQ ID NO:2). In order to eliminate the possibility that the drug treatments could have an inhibitory effect on the RT used in the RT-PCR reaction rather than the HIV RT a constitutive (i.e. always expressed) enzyme called GADPH was used as a control. […]

recombinant RT = biological target: T1, recombinant RT (Human immunodeficiency virus type 1 group M subtype B, UniProt P04585); assay: Effect on recombinant RT; assay type: biochemical; conditions: different molar concentrations; protein not within the HIV viral lysate
T1 construct: effect of different molar concentrations of naloxone on recombinant RT

C=CCN1CC[C@]23c4c5ccc(O)c4O[C@H]2C(=O)CC[C@@]3(O)[C@H]1C5 [naloxone, naloxone hydrochloride]
expression of gp120 protein (Western blot) ([1]; HIV infected lymphocytes): significantly depress expression
inhibition of HIV as measured by gp120 expression, compared with AZT ([1]; equivalent molar concentrations, cells lysed 3 days after infection): as effective, or more effective, than equivalent molar concentrations of AZT
inhibition of RT activity in HIV infected cells compared with AZT ([2]; identical molar dose range of AZT): at least as effective as AZT
RT activity in HIV-MN infected Supt 1 cells ([2]; treatment dose increasing from 10^-11 to 10^-4 M, 3 days, vs no drug control): RT activity decreases
expression of RNA for envelope glycoprotein gp41 (RT-PCR) [3]: inhibiting expression of RNA for the envelope glycoprotein gp41
expression of RNA for envelope glycoprotein gp41 (RT-PCR) ([3]; listed as Naloxone): significantly depress expression
effect of drug treatment on expression of GADPH (GADPH): No effect
effect on recombinant RT (recombinant RT): direct inhibitory effect on RT
